Experimental data from patent publication US9273330B2, “Butanol tolerance in microorganisms” (Butamax Advanced Biofuels LLC, priority 2012, dated 2016).

Experiments:
[1] = test system: population of cells that had survived 24 hour exposure to 2.5% isobutanol during Selection IV; assay: Serial passage in SEGU culture medium with glucose and isobutanol; type: cell-based, Saccharomyces cerevisiae; conditions: 30° C., after 48 hours (1:2 dilution after 24 hours)
Experimental: A population of cells that had been evolved through four isobutanol exposures (Selection IV, Example 2) was repeatedly sub-cultured in growth medium supplemented with glucose and isobutanol to select for cells that were better able to utilize glucose in the presence of isobutanol.
A population of cells that had survived 24 hour exposure to 2.5% isobutanol during Selection IV (see Table 7) was diluted into SEGU culture medium (SEU with 0.2% glucose) to OD600=0.8. The diluted cell suspension was divided into 1.5 ml cultures, dispensed into 2 ml sterile screw cap tubes and supplemented with various concentrations of isobutanol. The cultures were incubated at 30° C. on a roller drum. After 24 hours, the cultures were diluted 1:2 with the SEGU culture medium comprising the same amount of isobutanol as the previous culture. […] The 0.5% culture was serially sub-cultured 10 times by diluting the culture to approximately OD600=0.5 in SEGU culture medium containing 0.5% isobutanol and incubating the diluted culture at 30° C. for 24 to 48 hours before diluting the culture again.

[2] = test system: isobutanologen PNY1530; assay: Isobutanol selection: viable cell count after 24 hour exposure of high-density PNY1530 cultures; type: cell-based, Saccharomyces cerevisiae
Experimental: Cultures of PNY1530 were subjected to five rounds of selection in increasing concentrations of isobutanol. The first round of isobutanol selection was initiated by growing PNY1530 to OD600=1.8 in 100 ml of SEU culture medium (yeast nitrogen base supplemented with Sigma yeast synthetic dropout medium without uracil (Sigma Y1501) and with 0.2% ethanol). The cells were centrifuged, resuspended in 100 ml of fresh culture medium and grown for several hours to approximately 3 OD600 units. The culture was centrifuged and resuspended at OD600=100 (approximately 5×10^8 cfu/ml) in 3 ml of culture medium without ethanol. A small sample was removed from the cell suspension for a viable cell count, and the remaining cell suspension was divided into three cultures containing 1.5% isobutanol, 1.7% isobutanol or 2.0% isobutanol. Each culture was incubated at 30° C. on a roller drum for 24 hours. The cultures were then centrifuged, and the cell pellets were each resuspended in 1 ml of culture medium without isobutanol or ethanol. Small samples were removed from the cultures for viable cell counts, and the remaining portion of each cell suspension (approximately 975 μl) was inoculated into 10 ml of SEU culture medium. The cultures were incubated at 30° C. with shaking. In general, each subsequent round of isobutanol selection was initiated with cells that had survived the highest level of isobutanol selection in the previous round of exposure.
Increased numbers of survivors were observed following each exposure to isobutanol (Table 7). For example, only 1.8% of the cells survived 24 hour exposure to 2.0% isobutanol during Selection I whereas 100% of the population survived 24 hour exposure to 2.0% isobutanol during Selection IV.

CC(C)CO [Isobutanol, 2-methyl-1-propanol]
highest concentration that permitted growth [1]: 0.5%
Percent Survival ([2]; 1.5% isobutanol, Selection I): 73
Percent Survival ([2]; 1.7% isobutanol, Selection I): 53
Percent Survival ([2]; 2.0% isobutanol, Selection I): 1.8 →
Percent Survival ([2]; 2.0% isobutanol, Selection I, listed as isobutanol): 1.8
Percent Survival ([2]; 2.0% isobutanol, Selection II): 12 →
Percent Survival ([2]; 2.0% isobutanol, Selection III): 21
Percent Survival ([2]; 2.0% isobutanol, Selection IV): 100
Percent Survival ([2]; 2.2% isobutanol, Selection III): 0.8
Percent Survival ([2]; 2.2% isobutanol, Selection IV): 45
Percent Survival ([2]; 2.5% isobutanol, Selection II): 0.0003
Percent Survival ([2]; 2.5% isobutanol, Selection III): 0.0006 →
Percent Survival ([2]; 2.5% isobutanol, Selection IV): 14 →
Percent Survival ([2]; 2.5% isobutanol, Selection V): 4.5
Percent Survival ([2]; 2.7% isobutanol, Selection II): no survivors were detected
Percent Survival ([2]; 2.7% isobutanol, Selection V): 0.004
